Source: the supplement of paper PMC10307832

Tests used:
Test in all cases: relative viability (nuclei count vs DMSO), 5 days (fraction); higher = more cells survive
XMD14-99 + Lapatinib = compound: CN1CCN(CC1)C2=CC(=C(C=C2)NC3=NC(=C(S3)C(=O)C4=C(C=CC=C4Cl)Cl)N)OC [XMD14-99] + CS(=O)(=O)CCNCc1ccc(-c2ccc3ncnc(Nc4ccc(OCc5cccc(F)c5)c(Cl)c4)c3c2)o1 [Lapatinib] (partner 2 µM)
In short: (§1)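 Each reported value is a median over duplicate plates. It expresses relative viability: treated-well nuclei count divided by vehicle-well nuclei count. Lung cancer cell lines in 1536-well plates were dosed by pin tool a day after seeding, alone with one drug or with a fixed anchor-drug dose plus five library-drug doses (not always all listed) in √10 steps, and nuclei were counted after 5 days.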

AZD1208 + Tozasertib = compound: N[C@@H]1CCCN(c2c(/C=C3\SC(=O)NC3=O)cccc2-c2ccccc2)C1 [AZD1208] + Cc1cc(Nc2cc(N3CCN(C)CC3)nc(Sc3ccc(NC(=O)C4CC4)cc3)n2)n[nH]1 [Tozasertib] (partner 0.1 µM)
In short: as §1

AZD1208 + Alpelisib = compound: N[C@@H]1CCCN(c2c(/C=C3\SC(=O)NC3=O)cccc2-c2ccccc2)C1 [AZD1208] + Cc1nc(NC(=O)N2CCC[C@H]2C(N)=O)sc1-c1ccnc(C(C)(C)C(F)(F)F)c1 [Alpelisib] (partner 2 µM)
In short: as §1

AZD1208 + Olaparib = compound: N[C@@H]1CCCN(c2c(/C=C3\SC(=O)NC3=O)cccc2-c2ccccc2)C1 [AZD1208] + O=C(c1cc(Cc2n[nH]c(=O)c3ccccc23)ccc1F)N1CCN(C(=O)C2CC2)CC1 [Olaparib] (partner 8 µM)
In short: as §1

Cell Line	relative viability (XMD14-99 + Lapatinib; first compound 0.08 µM)	relative viability (XMD14-99 + Lapatinib; first compound 0.8 µM)	relative viability (XMD14-99 + Lapatinib; first compound 2.53 µM)	relative viability (XMD14-99 + Lapatinib; first compound 8 µM)	relative viability (AZD1208 + Tozasertib; first compound 0.08 µM)	relative viability (AZD1208 + Tozasertib; first compound 0.253 µM)	relative viability (AZD1208 + Tozasertib; first compound 0.8 µM)	relative viability (AZD1208 + Tozasertib; first compound 2.53 µM)	relative viability (AZD1208 + Tozasertib; first compound 8 µM)	relative viability (AZD1208 + Alpelisib; first compound 0.08 µM)	relative viability (AZD1208 + Alpelisib; first compound 0.253 µM)	relative viability (AZD1208 + Alpelisib; first compound 0.8 µM)	relative viability (AZD1208 + Alpelisib; first compound 2.53 µM)	relative viability (AZD1208 + Alpelisib; first compound 8 µM)	relative viability (AZD1208 + Olaparib; first compound 0.08 µM)	relative viability (AZD1208 + Olaparib; first compound 0.253 µM)	relative viability (AZD1208 + Olaparib; first compound 0.8 µM)	relative viability (AZD1208 + Olaparib; first compound 2.53 µM)	relative viability (AZD1208 + Olaparib; first compound 8 µM)
201T	1.02	1.05	1	0.936	0.959	0.934	0.865	0.803	0.649	1.04	0.948	0.919	1.04	0.976	0.876	0.84	0.866	0.868	0.909
A549	0.857	0.923	0.983	0.685						0.676	0.622	0.48	0.687	0.448	0.345	0.38	0.306	0.261	0.235
A-427	1.14	0.984	0.999	0.898	0.196	0.195	0.212	0.18	0.185	1.02	1.07	1.02	1.02	0.97	0.674	0.758	0.605	0.713	0.661
ABC-1	1.05	1.18	1.17	1.05	0.168	0.155	0.214	0.192	0.192	1.14	0.727	0.769	0.903	0.935	0.623	0.813	0.56	1.17	0.759
BEN	0.738	0.825	0.661	0.627	0.507	0.414	0.385	0.374	0.435	0.876	1.1	0.704	0.673	0.507	1.01	0.985	0.722	0.758	0.59
CAL-12T	0.603	0.549	0.545	0.547	0.35	0.355	0.322	0.323	0.271	1.12	1.22	1.13	1.1	0.851	0.81	0.737	0.633	0.711	0.797
COR-L23	0.906	0.924	0.931	0.517	0.152	0.174	0.187	0.182	0.171	0.735	0.64	0.715	0.721	0.657	0.307	0.354	0.372	0.304	0.321
COR-L 105	0.404	0.293	0.354	0.32	0.35	0.384	0.376		0.348	1.06	0.94	0.763	1.06	0.807	0.702	0.586	0.661	0.736	0.594
Calu-6	0.996	0.934	0.936	0.735						0.993	1.03	0.889	0.918	0.818	0.572	0.648	0.591	0.592	0.639
ChaGo-K-1					0.216	0.202	0.193	0.218	0.183						0.426	0.431	0.378	0.437	0.434
EBC-1	0.252	0.207	0.2	0.173						0.783	0.806	0.885	0.75	0.817	0.709	0.707	0.63	0.687	0.624
EKVX	0.187	0.18	0.193	0.163	0.444	0.462	0.376	0.388	0.262	0.866	0.936	0.775	0.802	0.71	0.793	0.941	0.811	0.829	0.821
EMC-BAC-2	0.87	0.905	0.859	0.724	0.28	0.298	0.28	0.25	0.222	0.752	0.74	0.636	0.701	0.62	0.517	0.536	0.494	0.472	0.448
EPLC-272H	0.927	0.943	0.924	0.846	0.231	0.351	0.263	0.149	0.197	0.938	0.949	0.807	0.807	0.894	0.647	0.773	0.906	0.687	0.656
H3255	0.234	0.252	0.326	0.164	0.664	0.675	0.534	0.58	0.689	0.662	0.702	0.639	0.567	0.615	0.593	0.611	0.557	0.597	0.569
HARA	0.701	1.03	0.647	0.362	0.11	0.0998	0.111	0.0918	0.0796	0.747	0.794	0.671	0.754	0.747	0.825	0.471	0.646	0.743	0.895
HCC-15	0.867	0.894	0.792	0.611	0.362	0.306	0.241	0.186	0.184	0.742	0.823	0.557	0.664	0.584	0.664	0.718	0.66	0.636	0.613
HCC-44	1.12	0.951	1.09	0.861	0.876	1.04	0.877	0.896	0.866	0.722	0.854	0.744	0.695	0.626	0.989	0.918	0.999	0.996	0.919
HCC-78	0.911	0.751	0.858	0.648	0.456	0.412	0.437	0.288	0.256	0.329	0.339	0.27	0.257	0.266	0.859	0.904	0.762	0.815	0.754
HCC-366	1.06	1.06	1.13	0.854	0.118	0.125	0.12	0.098	0.0502	0.453	0.362	0.337	0.27	0.227	0.352	0.311	0.283	0.316	0.281

Cell Line	relative viability (XMD14-99 + Lapatinib; first compound 0.08 µM)	relative viability (XMD14-99 + Lapatinib; first compound 0.8 µM)	relative viability (XMD14-99 + Lapatinib; first compound 2.53 µM)	relative viability (XMD14-99 + Lapatinib; first compound 8 µM)	relative viability (AZD1208 + Tozasertib; first compound 0.08 µM)	relative viability (AZD1208 + Tozasertib; first compound 0.253 µM)	relative viability (AZD1208 + Tozasertib; first compound 0.8 µM)	relative viability (AZD1208 + Tozasertib; first compound 2.53 µM)	relative viability (AZD1208 + Tozasertib; first compound 8 µM)	relative viability (AZD1208 + Alpelisib; first compound 0.08 µM)	relative viability (AZD1208 + Alpelisib; first compound 0.253 µM)	relative viability (AZD1208 + Alpelisib; first compound 0.8 µM)	relative viability (AZD1208 + Alpelisib; first compound 2.53 µM)	relative viability (AZD1208 + Alpelisib; first compound 8 µM)	relative viability (AZD1208 + Olaparib; first compound 0.08 µM)	relative viability (AZD1208 + Olaparib; first compound 0.253 µM)	relative viability (AZD1208 + Olaparib; first compound 0.8 µM)	relative viability (AZD1208 + Olaparib; first compound 2.53 µM)	relative viability (AZD1208 + Olaparib; first compound 8 µM)
HCC-827	0.182	0.205	0.188	0.197	0.445	0.409	0.412	0.385	0.401	0.969	1.04	0.915	0.859	0.893	0.623	0.669	0.389	0.641	0.338
HOP-62	1.22	1.06	0.946	0.819	0.372	0.302	0.372	0.287	0.263	1.04	0.919	0.82	0.764	0.896	0.39	0.417	0.326	0.341	0.37
IA-LM	0.821	0.603	0.511	0.301						0.83	0.617	0.826	0.837	0.569	0.907	0.777	0.774	0.807	0.904
LC-2-ad	0.955	0.926	0.908	0.764	0.397	0.381	0.355	0.363	0.318	0.816	0.592	0.787	0.894	0.794	0.315	0.781	0.736	0.663	0.728
LCLC-97TM1	1.06	0.815	0.786	0.583	0.223	0.23	0.175	0.135	0.132	0.267	0.212		0.169	0.199	0.327	0.396	0.385	0.316	0.252
LCLC-103H					0.51	0.425	0.457	0.481	0.373	0.904	0.985	0.863	0.884	0.774	0.774	0.798	0.811	0.81	0.786
LK-2	0.801	1.01	0.823	0.949	0.157	0.2	0.169	0.13	0.168	0.85	0.759	0.618	0.567	0.477	0.677	0.736	0.444	0.324	0.353
LOU-NH91	0.706	0.841	0.76	0.64	0.711	0.558	0.62	0.556	0.516	0.72	0.719	0.632	0.681	0.673	0.905	0.943	0.876	0.907	0.883
LU99A	0.94	0.976	0.879	0.695	0.288	0.304	0.276	0.3	0.203	0.497	0.481	0.462	0.429	0.345	0.273	0.266	0.273	0.235	0.246
NCI-H441					0.641	0.555	0.57	0.508	0.375	0.55	0.787	0.617	0.466	0.446	0.578	0.529	0.545	0.502	0.366
NCI-H522					0.534	0.619	0.492	0.514	0.446						0.527	0.504	0.633	0.703	0.568
NCI-H1299	0.924	0.925	0.925	0.813						1.08	1.08	1.07	1.03	1.13	0.999	1.01	0.974	0.957	0.987
NCI-H1563	0.85	1.1	0.906	0.824						0.898	0.826	0.954	0.951	0.834					
NCI-H1623					0.456	0.394	0.403	0.426	0.393										
NCI-H1648					0.599	0.462	0.346	0.33	0.389						1.09	1.44	0.663	0.828	0.939
NCI-H1650	0.702	1.03	0.725	0.619	0.423	0.387	0.277	0.321	0.304						0.712	0.787	0.839	0.856	0.796
NCI-H1703	0.9	0.976	0.972	0.793						0.338	0.302	0.301	0.31	0.287	0.416	0.334	0.268	0.384	0.337
NCI-H1792	0.995	0.89	0.912	0.536						0.629	0.742	0.579	0.608	0.535	0.414	0.39		0.44	0.246
NCI-H2342					0.454	0.499	0.453	0.418	0.421						0.49	0.383	0.372	0.456	0.376
SW 900					0.535	0.56	0.528	0.552	0.428						0.692	0.538	0.893	0.923	0.668
